Columns and labels:
Format in all cases: cell-based, human
[1] = test system: prostate carcinoma cell lines (DU-145, PC-3, LNCaP); assay: MTT viability assay; settings: 48 h
Procedure: (§1) Cells were seeded in 96-well plates, pretreated with NAC (5 mM) or Tiron (1 mM) for 2 h and infected with Ad.mda-7. Forty eight hours later, viability was assessed by MTT assay. […] Cells were seeded in 96-well plates, infected with Ad.mda-7 and treated with As2O3 (10 μM) or NSC656240 (400 nM). Forty eight h later, viability was assessed by MTT assay. Panel C. […] After treatment, cells were stained using DCF-DA and analyzed using flow cytometry. […] After treatment, cells were washed and stained with Annexin V-FITC conjugate. Late apoptotic and necrotic cells were excluded using PI staining. Results are the mean of three independent experiments performed with triplicate samples±S.E.
[…] Cellular viability was assessed by MTT assay 48 h after infection (Panel A). Mitochondrial membrane potential (DiOC6(3) staining, Panel B) and apoptotic changes (Annexin V staining, Panel C) were assessed 18 h (LNCaP cells) and 24 h (DU-145, PC-3 and P69 cells) after infection.
MTT Viability Assays. This method was performed as described (Lebedeva et al., 2000, Cancer Research 60:6052-6060). […] At the indicated time points, medium was removed, and fresh medium containing 0.5 mg/ml MTT was added to each well. The cells were incubated at 37° C. for 4 h and then an equal volume of solubilization solution (0.01N HCl in 10% SDS) was added to each well and mixed thoroughly. The optical density from the plates was read on a BioRad Microplate Reader Model 550 at 595 nm.

[2] = test system: prostate carcinoma cells; assay: ROS production (DCF fluorescence, flow cytometry)
Procedure: as §1

[3] = test system: pancreatic carcinoma cells; assay: MTT viability assay
Procedure: MTT Viability Assays. Cell viability was assessed by MTT assays as described (Lebedeva et al., 2000, Cancer Research 60:6052-6060). Briefly, cells were seeded in 96-well tissue culture plates (1.5×10^3 cells per well) and treated with various agents. At the indicated times, medium was removed, and fresh medium containing 0.5 mg/ml MTT was added to each well. The cells were incubated at 37° C. for 4 h and then an equal volume of solubilization solution (0.01N HCl in 10% SDS) was added to each well and mixed thoroughly. The optical density from the plates was read on a BioRad Microplate Reader Model 550 at 595 nm.

[4] = test system: pancreatic carcinoma cells; assay: Apoptosis (annexin V exposure, hypodiploid A0 cells)
Text: FIG. 39. Combined treatment of pancreatic carcinoma cells by NSC656240 and Ad.mda-7 increases levels of annexin V in pancreatic cancer cells irrespective of K-ras status.
FIG. 40. NAC administration prevents the apoptosis of pancreatic cancer cells induced by treatment of pancreatic carcinoma cells by NSC656240 or Ar2O3 and Ad.mda-7.
FIG. 41. Combined treatment of pancreatic carcinoma cells by NSC656240 or Ar2O3 and Ad.mda-7 causes apoptosis irrespective of K-ras status.
Annexin V Binding Assays. Cells were trypsinized, washed once with complete medium and stained with FITC-labeled Annexin-V (kit from Oncogene Research Products, Boston, Mass.) according to the manufacturer's instructions. Flow cytometry was performed immediately after staining.
Cell Cycle Analysis. Cells were trypsinized, washed 2× with PBS and fixed in 70% ethanol overnight at −20° C. Then cells were washed 2 times with PBS, and aliquots of 1×10^6 cells were resuspended in 1 ml of PBS containing 1 mg/ml of RNase A and 0.5 mg/ml of propidium iodide. After 30 min incubation, cells were analyzed by flow cytometry using a FACScan flow cytometer (Becton Dickinson, San Jose, Calif.).

[5] = test system: pancreatic cancer cell lines; assay: Western blotting of K-ras and MDA-7 protein
Text: FIG. 43. MDA-7 expression in pancreatic cancer cell lines in the presence or absence of Ad.mda-7, Ad.K-rasAS, or NSC656243. The presence of MDA-7 in mutant K-ras cell lines requires expression of both mda-7 and the antisense K-ras construct, and is potentiated by NSC656243.
FIG. 45. The MDA-7 expression observed in the PANC-1 or BxPC-3 cell lines following administration of Ad.mda-7 in combination with either NSC656240 or Ar2O3 is abrogated by NAC administration.
Preparation of Cell Extracts and Western Blotting Analysis. Cells were washed 2× with cold PBS and lysed on ice for 30 min in […] of cold RIPA buffer [50 mM Tris-HCl (pH 8.0), 150 mM NaCl, 0.1% SDS, 1% NP40, and 0.5% sodium deoxycholate] with freshly added 0.1 mg/ml phenylmethylsulfonyl fluoride, 1 mM sodium orthovanadate, and 1 mg/ml aprotinin. After cell debris were removed by centrifugation at 14,000 g for 10 min at 4° C., protein concentrations were determined using the Bio-Rad protein assay system (Bio-Rad Laboratories, Richmond, Calif.). Aliquots of cell extracts containing […] of total protein were resolved in 12% SDS-PAGE and transferred to Immobilon-P PVDF membranes (Millipore Corp., Bedford, Mass.). Filters were blocked for 1 h at room temperature in Blotto A [5% nonfat milk powder in TBS-T: 10 mM Tris-HCl (pH 8.0), 150 mM NaCl, 0.05% Tween 20], and then incubated for 1 h at room temperature in Blotto A containing a 1:1000 dilution of rabbit anti MDA-7 polyclonal antibody. After washing in TBS-T buffer (3×5 min, RT), filters were incubated for 1 h at room temperature in Blotto A containing a 1:10,000 dilution of peroxidase conjugated anti-rabbit secondary antibody (Amersham, Arlington Heights, Ill.). After washing in TBS-T, ECL was performed according to the manufacturer's recommendation.

[6] = test system: pancreatic carcinoma cells; assay: ROS production (flow cytometry)
Procedure: FIG. 46. Combined treatment by NSC656240 or Ar2O3 and Ad.mda-7 causes overproduction of ROS in pancreatic carcinoma cells.
Assessment of ROS Production. To determine ROS production, cells were stained with 2.5 μM HE or 5 μM DCFH-DA in PBS for 30 min at 37° C. in the dark. Immediately after staining, cells were analyzed by flow cytometry (FACSscan, Becton-Dickinson, Mountain View, Calif.), and data were analyzed using CellQuest software, version 3.1 (Becton Dickinson). For inhibition experiments, NAC (Sigma) was added 2 h prior to infection with Ad.mda-7. In all cases, cells were gated to exclude cell debris.

[7] = test system: pancreatic cancer cells stably transformed to express MDA-7; assay: Apoptosis and cell death in cells stably expressing MDA-7
Text: FIG. 49. Induction of apoptosis in pancreatic cancer cell lines (PANC-1) stably expressing MDA-7.
FIG. 50. Induction of apoptosis in pancreatic cancer cell lines (Mia PaCa-2) stably expressing MDA-7.
FIG. 51. Induction of apoptosis in pancreatic cancer cell lines (FM516 or BxPC-3) stably expressing MDA-7.

Compound | effect of ROS-producing agent on cell death of Ad.mda-7-infected cells ([1]; As2O3 10 μM, NSC656240 400 nM) | ROS levels ([2]; treated with NSC656240 or As2O3) | cell death, combinational treatment with Ad.mda-7 ([3]; Ad.mda-7 100 p.f.u./cell) | apoptosis, combination treatment with Ad.mda-7 ([4]; annexin V exposure and A0 population) | MDA-7 protein expression and secretion, combined treatment with Ad.mda-7 ([5]; wt and mutated K-ras pancreatic cancer cell lines) | ROS production, combined treatment with Ad.mda-7 [6] | apoptosis and cell death [7] | effect of antioxidant on cell death promoting activity of Ad.mda-7 ([1]; NAC 5 mM, Tiron 1 mM) | effect of NAC on Ad.mda-7-induced ROS generation ([2]; non-cytotoxic dose of NAC) | effect of N-acetyl-cysteine on death after combinational treatment [3] | effect of NAC on apoptosis after combination treatment [4] | effect of NAC on MDA-7 expression and secretion ([5]; both type of cells) | effect of NAC on ROS production [6] | effect of NAC on apoptosis and cell death [7]
arsenic trioxide | potentiated cell death | ROS levels increased proportionally | caused death of these cells irrespective of their K-ras status | caused apoptosis in pancreatic carcinoma cells independently of their K-ras status | leads to MDA-7 protein expression and secretion | Caused ROS overproduction | caused apoptosis and cell death |  |  |  |  |  |  | 
CC(=O)N[C@@H](CS)C(=O)O [NAC, N-acetyl-cysteine] |  |  |  |  |  |  |  | abrogated | suppressed Ad.mda-7-induced ROS generation | death can be prevented | prevents apoptosis | abrogates MDA-7 expression and secretion | blocked ROS production | blocks these processes

Source: patent US20060110376A1, “MDA-7 and free radicals in the treatment of cancer” (priority 2002, published 2006)
